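Growth conditions: 96-well plates. Treatment: test compound, 48 hours, 5 concentrations. Analysis: linear interpolation between bracketing concentrations; unreached endpoints set to highest concentration. TGI denotes the concentration required for complete inhibition of growth.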
Legend:
Test in all cases: NCI tumour cell line growth inhibition, 48 h
[1] = tested on: SK-MEL-28 melanoma
[2] = tested on: SR leukemia
[3] = tested on: UACC-62 melanoma
[4] = tested on: SK-MEL-5 melanoma
[5] = tested on: SF-268 CNS
[6] = tested on: NCI-H522 lung
[7] = tested on: TK-10 renal
[8] = tested on: A549 NSCLC
[9] = tested on: SNB-19 CNS
[10] = tested on: OVCAR-4 ovarian
[11] = tested on: SN12C renal
[12] = tested on: T-47D breast
[13] = tested on: M14 melanoma
[14] = tested on: COLO 205 colon
[15] = tested on: CCRF-CEM leukemia
[16] = tested on: EKVX NSCLC
[17] = tested on: NCI/ADR-RES ovarian
[18] = tested on: LOX IMVI melanoma
[19] = tested on: MALME-3M melanoma
[20] = tested on: HL-60(TB) leukemia

Structure (SMILES) | TGI [1] | TGI [2] | TGI [3] | TGI [4] | TGI [5] | TGI [6] | TGI [7] | TGI [8] | TGI [9] | TGI [10] | TGI [11] | TGI [12] | TGI [13] | TGI [14] | TGI [15] | TGI [16] | TGI [17] | TGI [18] | TGI [19] | TGI [20]
COC(OC)C1OC(CO)C(n2cc(C)c(=O)[nH]c2=O)C1O (stereo not drawn) | > 100 µM | > 100 µM | > 100 µM | > 100 µM | > 100 µM | > 100 µM | > 100 µM | > 100 µM | > 100 µM | > 100 µM | > 100 µM | > 100 µM | > 100 µM | > 100 µM | > 100 µM | > 100 µM | > 100 µM | > 100 µM | > 100 µM | 
CC(=N/NC(=S)N1CCCCC1)/C(=N\NC(=S)N1CCCCC1)c1ccccc1 | 3.94 µM |  | 3.87 µM | 3.57 µM | 3.37 µM | 4.18 µM | 3.21 µM | 4.5 µM | 3.64 µM | 3.61 µM | 3.43 µM | 3.99 µM | 3.64 µM | 4.06 µM |  | 3.43 µM | 6.43 µM | 25.9 µM | 3.96 µM | 
O=C1CCCCC/C1=C\c1ccc(F)cc1 | > 100 µM | > 100 µM | > 100 µM | > 100 µM | > 100 µM | > 100 µM | > 100 µM | > 100 µM | > 100 µM | > 100 µM | > 100 µM | > 100 µM | > 100 µM | > 100 µM | 59.8 µM | > 100 µM |  | > 100 µM | > 100 µM | 
Cc1nc(C)c(C(=O)NNC(=O)Cc2ccccc2)cc1C(=O)NNC(=O)Cc1ccccc1 |  |  | > 100 µM | > 100 µM | > 100 µM | > 100 µM | > 100 µM | > 100 µM | > 100 µM | > 100 µM | > 100 µM | > 100 µM | > 100 µM | > 100 µM | > 100 µM | > 100 µM | > 100 µM | > 100 µM |  | > 100 µM
O=C1/C(=C\c2ccc(Cl)cc2Cl)Sc2scc(-c3cccc([N+](=O)[O-])c3)[n+]21 | 59.2 µM | > 100 µM | 21.6 µM | 7.93 µM | 57.8 µM | 4.32 µM | 13.3 µM | 42.3 µM | 32.5 µM | 38.1 µM | 18.4 µM | 57.8 µM | 19.9 µM | 2.56 µM |  | 14.3 µM | 41.9 µM | 3.47 µM | 22.9 µM | 
COc1cc(/C=C2\C[C@H]3[C@@H]4CC=C5C[C@@H](O)CC[C@]5(C)[C@H]4CC[C@]3(C)[C@H]2O)cc(OC)c1OC | > 100 µM |  | 39.3 µM | 21.5 µM | > 100 µM | > 100 µM | > 100 µM | > 100 µM | > 100 µM | 46.2 µM | > 100 µM | 72.6 µM | 61.7 µM | 42.2 µM |  | > 100 µM | > 100 µM | 27.3 µM | > 100 µM | 23 µM
Cc1ccc(/C(O)=C/c2nc3ccccc3oc2=O)cc1 |  | > 100 µM | > 100 µM | 46.2 µM | > 100 µM | 90.1 µM | > 100 µM | > 100 µM | > 100 µM | > 100 µM | > 100 µM | > 100 µM | > 100 µM | > 100 µM | > 100 µM | > 100 µM | > 100 µM |  | > 100 µM | 
Cc1ccc(CC(=O)Nc2ccc(NC(=O)/C=C/NC(=O)/C=C/c3ccc(-c4ccccc4)cc3)cc2C(=O)c2ccccc2)cc1 | 9 µM |  | 4.87 µM | 5.14 µM | 9.46 µM |  | 8.72 µM | 4.32 µM | 16 µM | 3.41 µM | 5.51 µM | 18 µM | 7.3 µM | 4.53 µM | 8.84 µM | 3.58 µM | > 100 µM | 4.84 µM | 11.5 µM | 54.4 µM
O=C(/C=C(\O)c1ccc(Cl)cc1)C(=O)N=Nc1c(O)[nH]c2ccc(Br)cc12 | > 100 µM |  | > 100 µM | > 100 µM | > 100 µM | > 100 µM | > 100 µM | > 100 µM | > 100 µM | > 100 µM | > 100 µM | > 100 µM | > 100 µM | > 100 µM |  | > 100 µM | > 100 µM | > 100 µM | > 100 µM | 
O=C(O)CN1CCNCCN(CP(=O)(O)O)CC1 | > 100 µM | > 100 µM | > 100 µM | > 66.5 µM | > 100 µM | > 26.8 µM | > 100 µM | > 100 µM | > 100 µM | > 100 µM | > 100 µM | > 100 µM | > 100 µM | > 100 µM | > 100 µM | > 100 µM |  | > 100 µM | > 100 µM | 8.41 µM
